Experiments:
Assay in all cases: relative viability (nuclei count vs DMSO), 5 days (fraction); higher = more cells survive
OSI-027 + Foretinib = compound: COc1cccc2cc(-c3nc([C@H]4CC[C@H](C(=O)O)CC4)n4ncnc(N)c34)[nH]c12 [OSI-027] + COc1cc2c(Oc3ccc(NC(=O)C4(C(=O)Nc5ccc(F)cc5)CC4)cc3F)ccnc2cc1OCCCN1CCOCC1 [Foretinib] (partner 0.25 µM)
Outline: (§1)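 Relative viability was taken as the ratio of nuclei in treated wells to nuclei in vehicle wells. Lung cancer cell lines in 1536-well plates received compounds by pin tool one day after seeding, either one drug alone or a fixed anchor-drug dose plus five library-drug doses (not always all listed) in √10 steps. Nuclei were counted on 4× images after 5 days of treatment, and values are medians of duplicate plates.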

Vemurafenib + Olaparib = compound: CCCS(=O)(=O)Nc1ccc(F)c(C(=O)c2c[nH]c3ncc(-c4ccc(Cl)cc4)cc23)c1F [Vemurafenib] + O=C(c1cc(Cc2n[nH]c(=O)c3ccccc23)ccc1F)N1CCN(C(=O)C2CC2)CC1 [Olaparib] (partner 8 µM)
Outline: as §1

Vemurafenib + Phenformin = compound: CCCS(=O)(=O)Nc1ccc(F)c(C(=O)c2c[nH]c3ncc(-c4ccc(Cl)cc4)cc23)c1F [Vemurafenib] + N=C(N)NC(=N)NCCc1ccccc1 [Phenformin] (partner 250 µM)
Outline: as §1

OSI-027 + Vorinostat = compound: COc1cccc2cc(-c3nc([C@H]4CC[C@H](C(=O)O)CC4)n4ncnc(N)c34)[nH]c12 [OSI-027] + O=C(CCCCCCC(=O)Nc1ccccc1)NO [Vorinostat] (partner 1 µM)
Outline: as §1

Cell Line	relative viability (OSI-027 + Foretinib; first compound 0.01 µM)	relative viability (OSI-027 + Foretinib; first compound 0.03162 µM)	relative viability (OSI-027 + Foretinib; first compound 0.1 µM)	relative viability (OSI-027 + Foretinib; first compound 0.3162 µM)	relative viability (OSI-027 + Foretinib; first compound 1 µM)	relative viability (Vemurafenib + Olaparib; first compound 0.03162 µM)	relative viability (Vemurafenib + Olaparib; first compound 0.1 µM)	relative viability (Vemurafenib + Olaparib; first compound 0.3162 µM)	relative viability (Vemurafenib + Olaparib; first compound 1 µM)	relative viability (Vemurafenib + Phenformin; first compound 0.03162 µM)	relative viability (Vemurafenib + Phenformin; first compound 0.1 µM)	relative viability (Vemurafenib + Phenformin; first compound 1 µM)	relative viability (OSI-027 + Vorinostat; first compound 0.01 µM)	relative viability (OSI-027 + Vorinostat; first compound 0.03162 µM)	relative viability (OSI-027 + Vorinostat; first compound 0.1 µM)	relative viability (OSI-027 + Vorinostat; first compound 0.3162 µM)	relative viability (OSI-027 + Vorinostat; first compound 1 µM)	relative viability (Vemurafenib + Phenformin; first compound 0.3162 µM)
LC-2-ad	0.826	0.899	0.888	0.765	0.582	0.691	0.645	0.763	0.69	0.549	0.583	0.569	0.718	0.703	0.758	0.854	0.549	–
NCI-H1793	0.574	0.557	0.539	0.345	0.166	0.778	0.497	0.879	1.06	0.338	–	0.338	0.713	0.777	0.444	0.377	0.281	0.333
LCLC-103H	0.693	0.658	0.786	0.666	0.334	0.644	0.71	0.742	0.797	0.312	0.342	0.307	0.781	0.64	0.747	0.704	0.613	0.262
NCI-H1944	0.835	0.918	0.884	0.73	0.394	0.426	–	0.384	0.359	0.206	0.18	0.191	0.571	0.543	0.575	0.431	0.378	0.122
NCI-H650	1.08	1.09	1.01	0.868	0.514	0.385	0.368	0.305	0.378	0.437	0.443	0.37	0.495	0.479	0.325	0.303	0.232	–
ChaGo-K-1	0.977	0.854	0.907	0.8	0.504	0.404	0.4	0.49	0.382	0.472	0.545	0.481	0.732	0.815	0.709	0.698	0.581	0.352
SK-MES-1	0.874	1.1	0.926	0.69	0.447	0.623	0.576	0.777	0.688	0.624	0.695	0.706	1.21	1.08	0.972	0.913	0.593	0.622
NCI-H2347	0.914	1.15	0.633	0.494	0.468	0.495	0.493	0.547	0.588	0.33	0.38	0.234	0.556	0.403	0.55	0.447	0.339	0.463
PC-14	0.937	0.843	1.03	0.958	0.847	0.292	–	0.304	0.292	0.456	–	0.652	0.734	0.72	0.585	0.698	0.445	0.218
